# Test results as given in patent US20260308158A1, “TARGETING RNAS ASSOCIATED WITH TAUOPATHIES WITH SMALL MOLECULES” (University of Florida Research Foundation, Incorporated, priority 2023, published 2026).
# How the values were obtained:
# WT I17T mutant RNA = experiment: Fluorescent binding affinity, WT I17T mutant RNA
# Experimental: (§1) Fluorescent Binding Affinity Measurements. Binding assays were completed as previously described.^30 Briefly, the RNA of interest was folded in 1× Assay Buffer-1 (AB1: 8 mM Na2HPO4, pH 7.0, 185 mM NaCl, and 1 mM EDTA) by heating at 95° C. for 30 s followed by slowly cooling to room temperature. Bovine serum albumin (BSA) was then added to a final concentration of 40 μg/mL to afford 1× Assay Buffer-2 (AB2: 8 mM Na2HPO4, pH 7.0, 185 mM NaCl, 1 mM EDTA, and 40 μg/mL BSA). The RNA solution was serial diluted with 1×AB2. Then, compound of interest was added to the RNA solutions to a final concentration of 0.5 μM. […] Fluorescence intensity was measured using a Tecan Plate Reader (Gain: 100, Integration time: 40 μs). […] The change in fluorescence of the small molecule was calculated by its comparison to samples lacking RNA. Binding affinity was calculated using Equation 1, as previously described:^30
# (§2) where I and I0 are the measured fluorescence intensity of the compound with or without RNA, respectively, Δε is the difference between the fluorescence intensity with the infinite concentration of RNA and the fluorescence intensity without RNA, [SM]0 and [RNA]0 are the concentrations of the small molecule (SM) and RNA, respectively, and Kd is the dissociation constant.
# [1] = tested on: dually labeled DDPAC MAPT SRE RNA / U1 snRNA mimic; experiment: U1 snRNA mimic FRET-based quenching assay; format: biochemical
# Experimental: U1 snRNA Mimic Quenching Assay. A 200 nM aliquot of dually labeled model of the DDPAC RNA (5′-FAM-[…]-BHQ-1-3′ (SEQ ID NO: 5); where FAM is 5 (6)-Carboxyfluorescein and BHQ-1 is black hole quencher) was folded in 1× Assay Buffer as described in Fluorescent Binding Affinity Measurements. Compound of interest at the indicated concentration was added, and the samples were incubated at room temperature in the dark for 15 min. A U1 snRNA mimic with sequence 5′-[…]-3′ (SEQ ID NO: 6) was then added to the samples to a final concentration of 20 μM. The fluorescence intensity of FAM was measured as a function of time for 1 h using a […] plate reader, with excitation and emission wavelengths of 485 and 525 nm, respectively.
# [2] = Body weight / tolerability, htau mice; format: in vivo, htau mouse; conditions: 100 mg/kg p.o. q.o.d., 20 days
# Description: hTau Mice Studies. htau mice and WT mice (C57BL/6J) were purchased from Jackson Laboratories. htau mice were maintained in-house through breeding between htau+/− mice. Genotype was confirmed by PCR amplification as previously described.^18 Only homozygous mice were used in in vivo studies. Mice were randomly assigned to a treatment group, which were age- and gender-matched (n=X). In these studies, mice were >9 months of age since cognitive and physiological impairments in htau mice was age-dependent and were not presented in young mice (<4 months) with early-stage tau pathology.^42 Mice were orally administered vehicle (5/5/90 DMSO/Tween-80/H2O) or 100 mg/kg of 2 in the same formulation every other day (q.o.d.). During the treatment period, nesting activity was assessed, as describe in Nesting Activity below. After 20 days, the mice were euthanized (in accordance with guidelines provided by the American Veterinarian Medical Association), and the brain was harvested for analysis. One hemisphere of the brain was frozen at −80° C. for RT-qPCR analyses while the other was used for histological studies.
# WT MAPT SRE RNA = experiment: Fluorescent binding affinity, WT SRE RNA
# Experimental: as §1, §2
# WT mice = experiment: Nesting activity, WT mice; format: in vivo, mouse
# Experimental: Nesting Activity. From Day 1 to Day 20, mice were individually housed and nesting material from the previous day was removed. An intact 3.0 g nestlet was placed within each cage. Around 15 h later, the resulting nest was photographed for qualitative scoring, and the untorn nestlet was weighed if present. All nest images and weights were analyzed by a blinded individual and based on published criteria.^43 In brief, nesting is scored on a rating scale of 1-5 where if the nestlet is over 90% intact, it is given a nestlet score is 1 (Poor; FIG. 4C). When the nestlet is partially torn but >50% remains, the nestlet score is 2; a score of 3 is assigned when 50-90% of the nestlet is torn but spread around the cage and no identifiable nest site is found (Medium; FIG. 4C). When more than 90% of the nestlet is torn and the nest is identifiable but flat, the nestlet score is 4. When a near perfect nest is built and the wall is higher than the mouse's body, it is assigned a nestlet score of 5 (Good; FIG. 4C).
# [3] = tested on: DDPAC I17T MAPT exon 10 mini-gene luciferase reporter; experiment: Luciferase reporter assay, DDPAC I17T mutant mini-gene in HeLa cells; format: cell-based; conditions: Homo sapiens, 48 h, 5 μM (highest dose), read-out: reduction of luciferase activity
# Experimental: Luciferase-reporter Assay to Study Exon 10 Alternative Splicing. The exon 10 mini-genes, both WT and DDPAC and mutant thereof, fused to firefly luciferase, have been previously described.^18 HeLa cells were seeded in 60 mm diameter dishes and incubated for 12-16 h to 70% confluency. They were then transfected with WT, WT+I17T, DDPAC, or DDPAC+I17T luciferase reporter minigenes using JetPrime (Polyplus Transfection) per the manufacturer's recommended protocol and incubated for 4 h. After transfection, the cells were collected by trypsinization and re-seeded in 96-well plates at 0.2×10^5 cells per well, followed by treatment of compounds after 4 h. Compound stocks prepared in DMSO were diluted in growth medium and added to cells with final DMSO concentration at 0.1% (v/v). After a 48 h treatment period, the cells were washed with 1× DPBS. Each well was added with a mixture of 10 μL WST-1 reagent and 90 μL of growth medium. After incubation at 37° C. for 45 min, absorbance was measured at 450 and 690 nm. A690 as background was subtracted from A450 to obtain A450′. […] The plate was incubated at room temperature for 20 min and the luminescence was measured with a […] plate reader (1000 ms integration time). The resulted luminescence was normalized to A450′.
smiles,measurement,setting,value
"COc1cc(N)ncc1CCCN(C)CCCn1cnc2c3ccccc3n(C)c2c1=O [Compound 2, 3-(3-((3-(6-amino-4-methoxypyridin-3-yl)propyl)(methyl)amino)propyl)-5-methyl-3,5-dihydro-4H-pyrimido[5,4-b]indol-4-one]",Kd (estimated; no saturable binding),WT I17T mutant RNA,> 50000 nM
same,more potent than 1 in multiple biochemical assays,"[1]; 2 vs 1, multiple biochemical assays",at least 6 fold
same,rate of increase of FAM signal (unfolding by U1 snRNA mimic),"[1]; compound 10 μM, vehicle 0.49 min-1",0.37 min⁻¹
same,lower IC50 compared with 1,"[1]; end-point FRET assay (FIG. 15C), 2 vs 1",around 5 fold
same,IC50,"[1]; end-point measurement (5 min), read-out: IC50, reduction in FAM fluorescence (U1 snRNA mimic binding)",900 ± 200 nM
same,change in weight,[2],no change in the weight
same,tolerability,[2],well tolerated
same,higher affinity for the MAPT SRE than 1,WT MAPT SRE RNA; 2 vs 1,~ 6 fold
same,Kd,"WT MAPT SRE RNA; WT RNA, inherent fluorescence, n=3",550 ± 110 nM
same,nesting behavior vs no treatment,"WT mice; 20 days, 100 mg/kg p.o. q.o.d.",no significant difference in nesting behavior
same,nest score at Day 20,"WT mice; scale 1-5, 100 mg/kg p.o. q.o.d.",4.1±0.2
same,average nest score over time,"WT mice; scale 1-5, over 20 days, 100 mg/kg p.o. q.o.d.",3.7-4.3
same,inhibition at 5 µM,[3],~15%
